The text below walks through data of patent US10947284B2, “Fusion molecules” (Pieris Pharmaceuticals GMBH, priority 2015, dated 2021).

In assay [1] the target is hNGAL (human lipocalin 2), wild type, SEQ ID NO: 1 (Homo sapiens, UniProt P80188). Kind of assay: Surface plasmon resonance (Biacore T200). Format: binding. Conditions: positive control. The text has this: In a surface plasmon resonance (SPR) based assay, a Biacore T200 instrument (GE Healthcare) was used to measure the binding affinity of individual muteins or fusion molecules to pyoverdine siderophores (to pyoverdine I succinyl, -succinamide, -α-ketoglutaryl with complexed iron ion or to pyoverdine II succinyl, -succinamide, -α-ketoglutaryl with complexed iron ion or to pyoverdine III succinyl, -succinamide, -α-ketoglutaryl with complexed iron ion). To this end, muteins selected for binding to pyoverdines (SEQ ID NOs: 16, 36, 53), a fusion molecule (SEQ ID NO: 134) and a negative control (SEQ ID NO: 64) were biotinylated for 2 h at room temperature applying an appropriate excess of EZ-Link NHS-PEG4-Biotin (Thermo, Cat #21329) followed by separation of non-reacted biotin using a Zebra Spin Desalting Plate (Thermo, […]) according to the manufacturer's instructions.
In the SPR affinity assay, biotinylated muteins and negative control were captured on a sensor chip CAP using the Biotin CAPture Kit (GE Healthcare), wherein the Sensor Chip CAP is pre-immobilized with an ssDNA oligo. […] After ligand immobilization, the four concentrations of Pvd were applied consecutively in ascending order before the dissociation was monitored. […] Data were evaluated with Biacore T200 Evaluation software (V 1.0). […]
For orientation: In SPR one partner is held on a chip, and binding of the other changes the refractive index at the surface.

Assay [2] has as its target lipocalin negative control SEQ ID NO: 64 (Homo sapiens, UniProt P80188, C107S/Q48H). In words: Surface plasmon resonance (Biacore T200). Format: binding. Conditions: Biacore, Example 18.
Protocol: In a Surface Plasmon Resonance (SPR) based assay a Biacore T200 instrument (GE Healthcare) was used to measure the binding affinity of muteins to pyoverdine I succinyl, -succinamide, -α-ketoglutaryl with complexed iron ion or to pyoverdine II succinyl, -succinamide, -α-ketoglutaryl with complexed iron ion or to pyoverdine III succinyl, -succinamide, -α-ketoglutaryl with complexed iron ion. Muteins selected for binding to pyoverdines and negative control (SEQ ID NO: 64) were biotinylated for 2 h at room temperature applying an appropriate excess of EZ-Link NHS-PEG4-Biotin (Thermo, Cat #21329) followed by separation of non-reacted Biotin using a Zebra Spin Desalting Plate (Thermo, Cat #21329) according to the manufactures instructions.
In the SPR affinity assay, biotinylated muteins and negative control were captured on a sensor chip CAP using the Biotin CAPture Kit (GE Healthcare): Sensor Chip CAP is pre-immobilized with an ssDNA oligo. Undiluted Biotin CAPture Reagent (streptavidin conjugated with the complementary ss-DNA oligo) was applied at a flow rate of 2 μl/min for 300 s. Subsequently, 1 μg/ml to 100 μg/mL of biotinylated muteins or negative control were applied for 300 s at a flow rate of 5 μl/min. The reference channel was loaded with Biotin CAPture Reagent only.
Applying a flow rate of 30 μl/min, a single cycle or multi cycle kinetics approach was used with a sample contact time of 120-180 s and a dissociation time of 900-2400 s. […] After ligand immobilization, for analysis using single cycle kinetics all 4-5 concentrations of Pvd were applied consecutively in ascending order before the dissociation was monitored. For analysis using multi cycle kinetics 4 dilutions of Pvd were applied, each followed a dissociation phase. All measurements were performed at 25° C. […] Data were evaluated with Biacore T200 Evaluation software (V 1.0). Double referencing was used. A 1:1 Binding model was used to fit the raw data.
(§1) Subsequently, 5 μg/mL of mutein or the negative control solution in 10 mM acetate pH 4.0 was applied at a flow rate of 10 μl/min until a high immobilization level of approximately 2000 RU was achieved. Residual activated groups were quenched with ethanolamine. The reference channels were treated with EDC/NHS following ethanolamine (blank immobilization).
In the SPR affinity assay, biotinylated muteins and negative control were captured on a sensor chip CAP using the Biotin CAPture Kit (GE Healthcare), wherein the Sensor Chip CAP is pre-immobilized with an ssDNA oligo. Undiluted Biotin CAPture Reagent (streptavidin conjugated with the complementary ss-DNA oligo) was applied at a flow rate of 2 μl/min for 300 s. Subsequently, 20 μg/ml to 100 μg/mL of biotinylated muteins or fusion molecule negative control were applied for 300 s at a flow rate of 5 μl/min. The reference channel was loaded with Biotin CAPture Reagent only. To determine the binding affinity, four dilutions of the respective Pvd were prepared in HBS-EP+ buffer (GE Healthcare) and applied to the chip surface. Applying a flow rate of 30 μl/min, a single cycle kinetics approach was used with a sample contact time of 180 s and a dissociation time of 1800-2400 s. […] After ligand immobilization, the four concentrations of Pvd were applied consecutively in ascending order before the dissociation was monitored. All measurements were performed at 25° C. […] Data were evaluated with Biacore T200 Evaluation software (V 1.0). Double referencing was preformed. A 1:1 binding model was used to fit the raw data.
Assay [3] addresses T1, Fusion molecule SEQ ID NO: 134 (hNGAL muteins SEQ ID NOs: 36, 16, 53 and 62) (Homo sapiens, UniProt P80188, A60T/C107S/D97H, form not given/K145I/K154W/K93R/L123T/L56V/L90R/N85D/Q69G/R101D/R92I/S147R/S88D/T74A/W99Y/Y126Q/Y152I/Y72N).
T1 construct: made in house; host or cells: HEK293
In words: Surface plasmon resonance (Biacore T200). Format: binding.

Assay [4] has as its target T2, hNGAL (human lipocalin 2, parent wild type SEQ ID NO: 1) mutein SEQ ID NO: 62 (Homo sapiens, UniProt P80188, A60Q/C107S/D65G/D97L/I61W/K145F/K154F/K66R/K93I/L123G/L56H/L90D/N85D/Q69R/R101T/R92A/S147I/S88D/W99R/Y120H/Y126G/Y152A/Y72W).
T2 construct: made in house
Kind of assay: Surface plasmon resonance (Biacore T200), CM5 chip. Format: binding. Conditions: SPR, high concentrations (≥1 μM).
Protocol: as §1
The binding assay was carried out with a contact time of 180 s, dissociation times of 1200-1800 s and applying a flow rate of 30 μl/min. Measurements were performed at 25° C. Regeneration of the immobilized mutein surface was achieved by three consecutive injections of 10 mM Gly-HCl pH 1.5 (120 s) followed by an extra wash with running buffer and a stabilization period. Data were evaluated with Biacore T200 Evaluation software (V 1.0). Double referencing was used. The 1:1 Binding model was used to fit the raw data.
Subsequently, 5 μg/mL of mutein or the negative control solution in 10 mM acetate pH 4.0 was applied at a flow rate of 10 μl/min until a high immobilization level of approximately 2000 RU was achieved. Residual activated groups were quenched with ethanolamine. The reference channels were treated with EDC/NHS following ethanolamine (blank immobilization). […] The binding assay was carried out with a contact time of 180 s, dissociation times of 1500-1800 s and applying a flow rate of 30 μl/min. Measurements were performed at 25° C. Regeneration of the immobilized mutein surface was achieved by three consecutive injections of 10 mM Gly-HCl pH 1.5 (120 s) followed by an extra wash with running buffer and a stabilization period. Data were evaluated with Biacore T200 Evaluation software (V 1.0). Double referencing was used. The 1:1 Binding model was used to fit the raw data.

The next assay has as its system P. aeruginosa PA01. In words: Chronic lung infection model in rats. Format: in vivo, Sprague Dawley rats. As to conditions: 20 mg/kg/dose, IV BD, treatment from day 3 post infection.

T1 sequence (P80188 with tags, fused parts or gaps with the stated changes, form open): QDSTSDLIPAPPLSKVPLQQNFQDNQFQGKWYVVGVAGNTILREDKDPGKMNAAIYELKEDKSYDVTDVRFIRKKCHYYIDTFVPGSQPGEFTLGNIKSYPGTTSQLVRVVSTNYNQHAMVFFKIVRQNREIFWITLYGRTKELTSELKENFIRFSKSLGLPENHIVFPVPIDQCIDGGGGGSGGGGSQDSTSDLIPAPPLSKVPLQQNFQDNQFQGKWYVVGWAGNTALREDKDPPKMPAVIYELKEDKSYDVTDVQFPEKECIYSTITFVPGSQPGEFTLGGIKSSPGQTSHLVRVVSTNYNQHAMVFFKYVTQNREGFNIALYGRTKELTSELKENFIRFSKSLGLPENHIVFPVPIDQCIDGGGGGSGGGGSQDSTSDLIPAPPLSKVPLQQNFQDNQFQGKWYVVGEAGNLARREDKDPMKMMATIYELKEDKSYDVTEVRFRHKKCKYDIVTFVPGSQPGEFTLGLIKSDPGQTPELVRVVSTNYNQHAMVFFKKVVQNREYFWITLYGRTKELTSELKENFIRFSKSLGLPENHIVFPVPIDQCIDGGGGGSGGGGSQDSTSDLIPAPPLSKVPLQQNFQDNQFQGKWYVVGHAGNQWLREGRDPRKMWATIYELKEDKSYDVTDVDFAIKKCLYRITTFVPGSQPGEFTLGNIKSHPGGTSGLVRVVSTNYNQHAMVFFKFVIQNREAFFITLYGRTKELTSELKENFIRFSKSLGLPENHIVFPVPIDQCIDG
T2 sequence (P80188 21-198 with the stated changes): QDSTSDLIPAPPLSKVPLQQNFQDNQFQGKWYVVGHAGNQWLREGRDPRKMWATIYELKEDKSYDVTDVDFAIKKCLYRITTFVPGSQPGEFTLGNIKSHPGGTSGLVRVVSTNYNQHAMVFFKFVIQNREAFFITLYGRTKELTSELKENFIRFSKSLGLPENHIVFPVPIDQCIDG
Sequence of hNGAL (human lipocalin 2), wild type, SEQ ID NO: 1 (P80188 21-198): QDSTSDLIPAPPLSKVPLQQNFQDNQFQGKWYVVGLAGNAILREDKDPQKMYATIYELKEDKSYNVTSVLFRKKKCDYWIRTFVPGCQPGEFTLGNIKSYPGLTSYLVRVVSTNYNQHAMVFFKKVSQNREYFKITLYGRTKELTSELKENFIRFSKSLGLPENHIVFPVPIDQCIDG
Sequence of lipocalin negative control SEQ ID NO: 64 (P80188 21-198 Q48H/C107S): as the sequence (P80188 21-198) above, with Q28H, C87S counted along it
Protocol for P. aeruginosa PA01: P. aeruginosa, PA01, was recovered from long-term storage at −80° C. by sub-culturing onto fresh blood agar plates and incubating at 37° C. overnight. The inoculum was prepared by picking 5-10 distinct colonies from the culture plates followed by suspension in 10 mL of Muller-Hinton broth. The culture was incubated for 18 hours on an orbital shaker at 300 rpm and 37° C. The culture was washed twice in PBS, then the pellet was resuspended in PBS and adjusted to an optical density of 0.669 at 600 nm (approximately 1.2×10^9 CFU/mL). This was further diluted to give an inoculum concentration of 6×10^7 CFU/mL. 1 mL of this inoculum was added to 30 mL of bacteriological agar, used to prepare the agarose beads (Cash H. A. et al., 1979). The final concentration of PA01 in the agarose beads was 2×10^6 CFU/mL (1×10^5 CFU per 50 μL inoculum).
Sprague Dawley rats used in this study were supplied by Charles River Laboratories UK. Rats were 200-225 g at the time of delivery and were specific pathogen free. Following arrival, rats were allowed at least 7 days acclimatization before the study was started. Rats were 250-300 g at the start of the study. Rats were group housed in sterile individually ventilated cages exposing the animals at all times to HEPA filtered sterile air. Rats had free access to food and water (sterile) and had sterile aspen chip bedding (changed every 3-4 days or as appropriate). […]

In the case of `O=C(N[C@H]1COC(=O)[C@@H](NC(=O)c2cccc(O)c2O)COC(=O)[C@@H](NC(=O)c2cccc(O)c2O)COC1=O)c1cccc(O)c1O.[Fe+3]` [Fe-Enterobactin, Fe-enterobactin], the binding result in assay [1] is “showed binding”; in assay [2], “showed binding”; in assay [3] (SPR, high concentrations (≥1 μM)) it was “absence of binding”; in assay [4] it was “absence of binding”. Besides, in assay [3] (Biacore, 25° C., Table 13), the KD result is listed as “no bdg”.
As to `NC[C@H]1O[C@H](O[C@H]2[C@H](O)[C@@H](O[C@H]3O[C@H](CO)[C@@H](O)[C@H](N)[C@H]3O)[C@H](N)C[C@@H]2N)[C@H](N)C[C@@H]1O` [Tobramycin], the “clearance of lung infection” value in the assay on P. aeruginosa PA01 is on record as “cleared the infection starting from day 5 post-infection”.
